Assay results: US4902800A, “1-Substituted-4-pyrrolidinopiperidines as inhibitors of interleukin 1” (American Home Products Corporation, priority 1988, dated 1990)

System: IL 1-induced release of neutral protease from rabbit articular chondrocytes
Assay: Inhibition of IL 1-induced release of neutral protease from rabbit articular chondrocytes (azocoll degradation)
Format: cell-based, rabbit (New Zealand White)
Details: Oryctolagus cuniculus, Chondrocyte, test compound 10 min. prior to human IL 1, 24 h after IL 1 stimulation, read-out: % Inhibition (I.S.D.)
Method: The ability of the compounds of the inventions to inhibit interleukin 1 is measured by the ability of the test compounds to inhibit the IL 1-induced release of neutral protease from rabbit articular chondrocytes.
Male New Zealand White rabbits are anesthetized with 50 mg/kg of ketamine (i.m.) and killed by an intracardiac injection of 3 mls. of Nembutal. The knee joints of both legs are resected and the articular surfaces are exposed. Cartilage slices are obtained using scalpel and are placed in a tissue culture dish (100 mm diameter) containing 10 mls of Hank's balanced salt solution (HBSS). The chondrocytes within the cartilage slices are then liberated by a series of enzyme digestions. The slices are incubated for 10 min. at 37° C. in 0.05% hyaluronidase (Sigma H-3884), rinsed with HBSS and incubated with 0.2% trypsin (Sigma T-2395) for 10 min. at 37° C. The slices are rinsed again and incubated for 10 mins. at 37° C. with 1.2% collagenase (Sigma C-5138). The slices are then rinsed again with HBSS and resuspended in 10 ml of Ham's F-12 medium containing 10% fetal bovine calf serum (FCS) and 0.2% collagenase and incubated overnight at 37° C. in a 5% CO2 incubator. The next day, the medium containing the digested cartilage fragments and liberated chondrocytes is transferred to a 15 ml centrifuge tube and the cells are collected by centrifugation and washed twice and resuspended in Ham's F-12 medium. The cells are then plated into 24-well tissue culture plates (2×10^5 cells/well) and incubated at 37° C. until confluent (usually 4-6 days).
The confluent chondrocytes are rinsed twice with serum-free Ham's F-12 medium and 1 ml is added to each well. Fifty μl of purified human IL 1 (100 Units/ml; Genzyme Corporation, Boston, MA) is then added to stimulate these cells to secrete neutral protease. To measure drug effects, the cells are treated with test compound 10 min. prior to addition of IL 1. The standard screening dose is 10 μM. Twenty-four hours after IL 1 stimulation, supernatant fluids are collected and assayed for neutral protease activity.
The neutral protease activity of chondrocyte supernatant fluids is determined by their ability to degrade an insoluble protease substrate, azocoll (Sigma). Supernatants are treated for 10 min. at room temperature with 350 μM p-aminophenylmercuric acetate to activate the latent enzyme. Three hundred μl of supernatant is then mixed with 500 μl of a 20 mg/ml suspension of azocoll and incubated at 37° C. for 18-24 hrs. with gentle rocking. The mixtures are centrifuged and the amount of substrate hydrolyzed is determined by measuring the absorbance of the supernatant at 520 nm.
Drug effects are calculated as the % change in enzyme activity (absorbance)by supernatants from drug-treated chondrocytes relative to enzyme activity of supernatants from vehicle-treated chondrocytes as follows: [formula]

Q: What does the source list for N#Cc1ccc(N2CCC(N3CCCC3)CC2)cc1 [Example 1, 4-[4-(1-Pyrrolidinyl)-1-piperidinyl]benzonitrile]?
A: inhibition at 0.1 µM: 48%; inhibition at 1 µM: 57%; inhibition at 10 µM: 26%

Q: For CS(=O)(=O)c1ccc(N2CCC(N3CCCC3)CC2)cc1 [Example 2, 1-[4-(Methylsulfonyl)phenyl]-4-(1-pyrrolidinyl)piperidine], which inhibition at 0.1 µM is on record?
A: The inhibition at 0.1 µM was 22%.

Q: And the inhibition at 1 µM?
A: Its inhibition at 1 µM is 87%.

Q: What about the inhibition at 10 µM of the same molecule?
A: The inhibition at 10 µM was 91%.
